Patent US7531195B2, “Schisandrin B preparation” (priority 2005, dated 2009)

Legend:
[1] = test system: H9c2 cells; test: Cellular GSH level in H9c2 cells, time course, with or without xanthine/xanthine oxidase (X/XO) challenge; assay type: cell-based, rat; settings: 6.25 μM
Protocol: (§1) H9c2 cells, a permanent cell line derived from cardiac myoblasts of rat embryo, have early been characterized as a suitable model of myocardial cells [Hescheler et al. 1991]. H9c2 cells were cultured as monolayers in Dulbecco's modified Eagle's medium (GIBCO BRL) supplemented with 10% (v/v) fetal bovine serum. The medium contained glucose (4.5 g/L) and glutamine (4.5 mM), supplemented with NaHCO3 (17 mM), penicillin (100 IU/ml), and streptomycin (100 μg/ml). Cells were grown under an atmosphere of 5% CO2 in air at 37° C. The medium was replaced by fresh medium every 2 or 3 days. A stock of cells was grown in a 75 cm culture flask and split before confluence at a subcultivation ratio of 1:10. Cells used for experiments were seeded at a density of 3.75×10^4 cells/well on a 12-well culture plate, and the cells were grown for 24 h to about 80% confluence prior to drug treatment.
(§2) Cultured H9c2 cells were treated with (−) Schisandrin B, (+) Schisandrin B or (±) Schisandrin B (dissolved in DMSO) at 6.25 μM (0.2% DMSO final concentration) for increasing periods of time. Control cells were given the vehicle (i.e. DMSO) only. Immediately following the drug or vehicle pretreatment, the cells were challenged with a mixture of xanthine (X) (0.1 mM) and xanthine oxidase (XO) (0.4 U/ml) for 4 h. The control cells were treated with the medium only. After the X/XO challenge, the medium was taken for the measurement of LDH activity, a biochemical index of cellular injury.
(§3) The cells were washed twice with 0.5 ml cold phosphate-buffered saline (PBS), An aliquot (200 μl) of 3% sulfonsalicyclic acid was then added, and the mixture was incubate at 4° C. for 10 min. After centrifuging at 300 g for 15 min at 4° C., the supernatant was used for GSH measurement by an enzymatic method of Griffith (1980).

[2] = test system: H9c2 cells; test: Xanthine/xanthine oxidase-induced cytotoxicity (LDH leakage) in H9c2 cells; assay type: cell-based, rat; settings: X/XO challenge, 6.25 μM
Protocol: as §1, §2

[3] = test system: H9c2 cells; test: Menadione-induced toxicity (LDH) in H9c2 cells; assay type: cell-based, rat
Protocol: as §1
(§4) Cultured H9c2 cells were treated with (−) Schisandrin B, (+) Schisandrin B or (±) Schisandrin B (dissolved in DMSO) at 6.25 μM (0.2% DMSO final concentration) for 16 h. Control cells were given the vehicle (i.e. DMSO) only. Immediately following the drug or vehicle pretreatment, the cells were challenged with menadione (dissolved in ethanol) at 12.5 μM (0.2% ethanol final concentration) for 4 h. The control cells were treated with the medium containing 0.2% ethanol only. After the menadione challenge, the medium was taken for the measurement of LDH activity, an biochemical index of cell injury.

[4] = test system: H9c2 cells; test: Cellular GSH level in H9c2 cells with or without menadione challenge; assay type: cell-based, rat
Protocol: as §1, §4, §3

[5] = test system: Hsp25; test: Hsp25 expression in H9c2 cells (Western blot); assay type: cell-based, rat; settings: 6.25 μM
Protocol: as §1
(§5) Cultured H9c2 cells were treated with (−) Schisandrin B, (+) Schisandrin B or (±) Schisandrin B (dissolved in DMSO) at 6.25 μM (0.2% DMSO final concentration) for increasing periods of time. Control cells were given the vehicle (i.e. DMSO) only.
(§6) Immediately following the drug treatment, the cells were washed twice with 0.5 ml cold PBS and treated with 100 μl lysis buffer containing 20 mM Tris HCl, 3 mM EGTA, 1% Triton X-100, 10% glycerol and 2 mM dithiothreitol, pH 7.5, with freshly added protease inhibitors (1 mM phenylmethylsulfonyl fluoride, 0.1 mM benzamide, 5 μg/ml leupeptin, 5 μg aproptinin and 5 μg/ml pepstain A). The mixture was incubated at 4° C. for 15 min with constant shaking. Then the cells were scraped off from the plate, and the extract was transferred to a microcentrifuge tube for centrifugation at 2,400 g for 3 min at 4° C. The resultant supernatant was used for Hsp analysis. Hsp25 and Hsp70 levels was estimated by Western blot analysis using specific antibodies (anti-Hsp25, catalog #SPA-801; anti-Hsp70, catalog #SPA-812) from StressGen (Vancouver, BC, Canada) following SDS-PAGE analysis cell lysates, using a separating gel of 10% acrylamide as described in Ip et. al. [2001]. Hsp25/27 and Hsp70 (human recombinant proteins from StressGen) and actin (bovine muscle from Sigma) were used as markers for reference. […] All immuno-blots were analyzed by densitometry, and the amounts (arbitrary units) of Hsp were normalized with reference to actin levels (arbitrary units) in the sample.

[6] = test system: Hsp70; test: Hsp70 expression in H9c2 cells (Western blot); assay type: cell-based, rat; settings: 6.25 μM
Protocol: as §1, §5, §6

[7] = test system: H9c2 cells; test: Cytotoxicity test in H9c2 cells (trypan blue, LDH leakage, WST); assay type: cell-based; settings: 100 μM; 24 h
Protocol: as §1
Cultured H9c2 cells were treated with (−) Schisandrin B or (+) Schisandrin B (dissolved in DMSO) at 6.25 μM (0.2% DMSO final concentration) at increasing concentrations or at increasing concentrations for 24 h. Control cells were given the vehicle (i.e. DMSO) only.
Cell viability was evaluated by trypan blue staining (dead cells) and LDH leakage as well as WST staining (viable cells).

[8] = NON-X/XO, 0 h post-dosing (unpretreated control)
[9] = X/XO challenge, 0 h post-dosing (unpretreated control)
[10] = X/XO challenge, 4 h post-dosing
[11] = X/XO challenge, 8 h post-dosing
[12] = X/XO challenge, 16 h post-dosing
[13] = X/XO challenge, 24 h post-dosing
[14] = X/XO challenge, 48 h post-dosing
[15] = 0 h post-dosing (unpretreated control)
[16] = MENADIONE 12.5 μM for 4 h, drug 6.25 μM for 16 h
[17] = NON-MENADIONE, 6.25 μM for 16 h

## COc1cc2c(c(OC)c1OC)-c1c(cc3c(c1OC)OCO3)CC(C)C(C)C2 (single isomer, unassigned; (+)) [(+) Sch B, (+) Schisandrin B]
[1]; [8]
  GSH Level: 34.2 ± 2.41 nmol/mg protein
[1]; NON-X/XO, 4 h post-dosing
  GSH Level: 38.3 ± 1.48 nmol/mg protein
[1]; NON-X/XO, 8 h post-dosing
  GSH Level: 46.3 ± 0.85 nmol/mg protein
[1]; NON-X/XO, 16 h post-dosing
  GSH Level: 73.9 ± 1.38 nmol/mg protein
  GSH Level, percent increase vs unpretreated control (0 h): (117%)
[1]; NON-X/XO, 24 h post-dosing
  GSH Level: 66.7 ± 1.83 nmol/mg protein
[1]; NON-X/XO, 48 h post-dosing
  GSH Level: 59.0 ± 2.94 nmol/mg protein
[1]; [9]
  GSH Level: 13.9 ± 1.68 nmol/mg protein
[1]; [10]
  GSH Level: 15.4 ± 0.55 nmol/mg protein
[1]; [11]
  GSH Level: 16.8 ± 0.85 nmol/mg protein
[1]; [12]
  GSH Level: 18.4 ± 0.33 nmol/mg protein
  GSH Level, percent increase vs unpretreated control (0 h): (32%)
[1]; [13]
  GSH Level: 17.2 ± 0.36 nmol/mg protein
[1]; [14]
  GSH Level: 14.1 ± 0.53 nmol/mg protein
[2]; [15]
  LDH Leakage: 35.7 ± 0.24 U/L
[2]; 4 h post-dosing
  LDH Leakage: 31.3 ± 0.71 U/L
[2]; 8 h post-dosing
  LDH Leakage: 25.2 ± 0.45 U/L
[2]; 16 h post-dosing
  LDH Leakage: 19.4 ± 0.29 U/L
  LDH Leakage, percent protection vs unpretreated control (0 h): (62%)
[2]; 24 h post-dosing
  LDH Leakage: 22.4 ± 1.07 U/L
[2]; 48 h post-dosing
  LDH Leakage: 33.5 ± 0.17 U/L
[3]; [16]
  LDH: 24.7 ± 0.56 U/ml
  LDH, percent protection vs menadione control: (30%)
[3]; [17]
  LDH: 13.5 ± 0.08 U/ml
[4]; [16]
  GSH Level: 24.5 ± 2.03 nmol/mg protein
  GSH Level, percent increase vs menadione control: (55%)
[4]; [17]
  GSH Level: 48.4 ± 0.60 nmol/mg protein
  GSH Level, percent increase vs non-menadione control: (41%)
[5]; [15]
  Hsp 25 Level: 1722 ± 99 AU
[5]; 8 h post-dosing
  Hsp 25 Level: 1832 ± 105 AU
[5]; 16 h post-dosing
  Hsp 25 Level: 1498 ± 86 AU
[5]; 24 h post-dosing
  Hsp 25 Level: 2168 ± 125 AU
  Hsp 25 Level, percent increase vs unpretreated control (0 h): (26%)
[5]; 48 h post-dosing
  Hsp 25 Level: 1673 ± 97 AU
[6]; [15]
  Hsp 70 Level: 465 ± 14.3 AU
[6]; 8 h post-dosing
  Hsp 70 Level: 576 ± 20.3 AU
[6]; 16 h post-dosing
  Hsp 70 Level: 657 ± 13.4 AU
[6]; 24 h post-dosing
  Hsp 70 Level: 834 ± 48.1 AU
  Hsp 70 Level, percent increase vs unpretreated control (0 h): (79%)
[6]; 48 h post-dosing
  Hsp 70 Level: 656 ± 37.8 AU
[7]
  percentage of cell death: 11%

## COc1cc2c(c(OC)c1OC)-c1c(cc3c(c1OC)OCO3)CC(C)C(C)C2 (racemic) [(±) Sch B, (±) Schisandrin B]
[1]; [8]
  GSH Level: 38.3 ± 1.16 nmol/mg protein
[1]; NON-X/XO, 4 h post-dosing
  GSH Level: 44.1 ± 3.60 nmol/mg protein
[1]; NON-X/XO, 8 h post-dosing
  GSH Level: 46.2 ± 1.90 nmol/mg protein
[1]; NON-X/XO, 16 h post-dosing
  GSH Level: 85.8 ± 2.57 nmol/mg protein
  GSH Level, percent increase vs unpretreated control (0 h): (124%)
[1]; NON-X/XO, 24 h post-dosing
  GSH Level: 76.6 ± 0.88 nmol/mg protein
[1]; NON-X/XO, 48 h post-dosing
  GSH Level: 58.8 ± 6.54 nmol/mg protein
[1]; [9]
  GSH Level: 14.5 ± 1.06 nmol/mg protein
[1]; [10]
  GSH Level: 15.8 ± 0.49 nmol/mg protein
[1]; [11]
  GSH Level: 16.7 ± 1.32 nmol/mg protein
[1]; [12]
  GSH Level: 22.3 ± 0.15 nmol/mg protein
  GSH Level, percent increase vs unpretreated control (0 h): (54%)
[1]; [13]
  GSH Level: 18.9 ± 0.50 nmol/mg protein
[1]; [14]
  GSH Level: 14.3 ± 1.04 nmol/mg protein
[2]; [15]
  LDH Leakage: 33.9 ± 0.93 U/L
[2]; 4 h post-dosing
  LDH Leakage: 28.7 ± 1.35 U/L
[2]; 8 h post-dosing
  LDH Leakage: 22.8 ± 0.45 U/L
[2]; 16 h post-dosing
  LDH Leakage: 15.8 ± 0.91 U/L
  LDH Leakage, percent protection vs unpretreated control (0 h): (65%)
[2]; 24 h post-dosing
  LDH Leakage: 20.1 ± 0.76 U/L
[2]; 48 h post-dosing
  LDH Leakage: 29.2 ± 0.57 U/L
[3]; [16]
  LDH: 23.6 ± 0.56 U/ml
  LDH, percent protection vs menadione control: (43%)
[3]; [17]
  LDH: 14.6 ± 0.67 U/ml
[4]; [16]
  GSH Level: 28.9 ± 0.66 nmol/mg protein
  GSH Level, percent increase vs menadione control: (56%)
[4]; [17]
  GSH Level: 46.5 ± 2.58 nmol/mg protein
  GSH Level, percent increase vs non-menadione control: (34%)
[5]; [15]
  Hsp 25 Level: 1413 ± 76 AU
[5]; 8 h post-dosing
  Hsp 25 Level: 1512 ± 39 AU
[5]; 16 h post-dosing
  Hsp 25 Level: 1611 ± 93 AU
[5]; 24 h post-dosing
  Hsp 25 Level: 1728 ± 101 AU
  Hsp 25 Level, percent increase vs unpretreated control (0 h): (24%)
[5]; 48 h post-dosing
  Hsp 25 Level: 1332 ± 77 AU
[6]; [15]
  Hsp 70 Level: 434 ± 15.5 AU
[6]; 8 h post-dosing
  Hsp 70 Level: 389 ± 24.7 AU
[6]; 16 h post-dosing
  Hsp 70 Level: 652 ± 23.9 AU
[6]; 24 h post-dosing
  Hsp 70 Level: 639 ± 23.4 AU
  Hsp 70 Level, percent increase vs unpretreated control (0 h): (47%)
[6]; 48 h post-dosing
  Hsp 70 Level: 419 ± 15.4 AU
